# What was measured:
# [1] = test system: ICAM-1 on U937 cells; assay: ICAM-1 labeling of PMA-differentiated U937 macrophages, confocal laser scanning microscopy; assay type: cell-based, human; details: U937 monocytes exposed to 10^−8M PMA for 48 hours; monocytes alone stained weakly positive
# Method: (§1) To obtain differentiated macrophages, U937 monocytes were exposed to 10^−8M PMA (originating from a 10^−3M stock in DMSO) (Sigma-Aldrich) for 48 hours. Exposure of monocytes to phorbol esters induces morphological, physiological and molecular characteristics of terminally differentiated macrophages (Rovera et al., 1979, Prieto et al., 1994). For CLSM staining purposes, monocytes were differentiated with PMA and A549 cells were grown in 6-well plates containing sterile coverslips. For CLSM staining of undifferentiated U937, cytodex-3 beads (5 mg/ml) were added to the culture medium, allowing adhesion of U937 to the beads and facilitation of the staining procedure.
# The antibodies used for CLSM imaging in the present study were from mouse origin and targeted the human CD45 (Abcam), ICAM-1 (Abcam), MUC5AC (Invitrogen), ZO-1 (Invitrogen) and β-catenin (Chemicon). All primary antibodies were used in a dilution of 1:50. ICAM-1 was the only directly labeled antibody used for CLSM staining and was conjugated with phycoerythrin (PE). […]
# Optical sections of the three-dimensional aggregates and monolayers were obtained using a Zeiss LSM 510 Duo laser scanning microscope equipped with detectors and filter sets for monitoring emissions of the selected fluorophores. Images were acquired using a Plan-Neofluar 40×/1.3 oil DIC objective and were analyzed with the Zeiss LSM software package. […]
# [2] = test system: U937 cells; assay: Phagocytosis of 2 μm fluorescent beads by PMA-differentiated U937 macrophages; assay type: cell-based, human; details: U937 monocytes exposed to 10^−8M PMA for 48 hours; undifferentiated monocytes could not phagocytose
# Method: as §1
# The phagocytosis activity of monocytes and macrophages cultured alone or co-cultured with A549 cells in three-dimensional was assessed based on the uptake of bacterial-sized 2 μm fluorescent […] beads (Fluoresbrite plain YG, Polysciences). The phagocytosis assay was performed as previously described (Gao et al., 2010).
compound,measurement,setting,value
"CCCCCCCCCCCCCC(=O)O[C@@H]1[C@@H](C)[C@@]2(O)[C@@H](C=C(CO)C[C@]3(O)C(=O)C(C)=C[C@@H]23)[C@@H]2C(C)(C)[C@]12OC(C)=O [PMA, phorbol 12-myristate 13-acetate]",ICAM-1 labeling of differentiated macrophages,[1],strong ICAM-1 labeling
same,phagocytosis of 2 μm fluorescent beads,[2],engulfment of one-to-multiple beads
